In US8188053B2, “Anti-inflammatory peptides” (The University of Manchester, priority 2005, dated 2012):
Entries after “also recorded” stand apart in the source; their conditions may differ.

B1: hTRX: Recombinant human thioredoxin (SEQ ID NO. 14), from which the peptides of the invention are derived (protein, listed as Homo sapiens)
chain: MVKQIESKTAFQEALDAAGDKLVVVDFSATWCGPCKMIKPFFHSLSEKYSNVIFLEVDVDDCQDVASECEVKCMPTFQFFKKGQKVGEFSGANKEKLEATINELV

Tests used:
Assay type in all cases: in vivo
[1] = system: allergen (oxazolone) induced Langerhans Cell (LC) migration; assay: allergen (oxazolone) induced Langerhans Cell (LC) migration after prior topical application of peptide; settings: for inhibition of allergen-induced LC migration: prior topical exposure to peptide, subsequent oxazolone at the same site; for biological activity (epidermal LC migration), equimolar comparison: equimolar doses (1.38 μM): 0.5 μg hTRX, 0.04 μg 9-mer, 0.025 μg KMIKP, 0.016 μg CGPC
Method: Various tissue studies are conducted to examine the effect of each of the aforementioned polypeptides on allergen (oxazolone) induced Langerhans Cell (LC) migration. Applications are in μg unless otherwise stated.
The purpose of this experiment is to determine whether topical application of peptide 1 is able to influence the integrity of LC migration induced by subsequent exposure at the same site to oxazolone, a potent contact allergen known to cause the mobilization of LC. The results of a representative experiment are illustrated in FIG. 1.
The purpose of this experiment is to determine whether topical application of peptide 3 is able to influence the integrity of LC migration induced by subsequent exposure at the same site to oxazolone. The results of three independent experiments are illustrated in FIG. 2. […] The conclusion drawn is that topically applied peptide 3 is able to inhibit one or more biological processes required for the effective mobilization and migration of LC in response to a stimulus, in this instance the contact allergen oxazolone.

[2] = system: Langerhans Cell migration induced by TNF-α; assay: Langerhans Cell migration induced by intradermal injection of homologous TNF-α after prior topical peptide; settings: prior topical exposure; intradermal (id) injection of homologous TNF-α
From the text: (§1) The purpose of this experiment is to investigate whether the 9-mer peptide (CGPCKMIKP; SEQ ID NO: 9) could affect Langerhans Cell migration induced by either IL-1β or TNF-α. The results of a representative experiment are illustrated in FIG. 9. […] The interpretation is that topical administration of the 9-mer peptide is associated with a perturbation of IL-1β function.

[3] = system: Langerhans Cell migration induced by IL-1β; assay: Langerhans Cell migration provoked by intradermal administration of homologous IL-1β after prior topical peptide; settings: prior topical exposure; id administration of homologous IL-1β
From the text: as §1

Row | Molecule | inhibition of allergen-induced LC migration [1] | biological activity (epidermal LC migration), equimolar comparison [1] | also measured
1 | AGPAKMIKP [cysteine free 9-mer peptide] | active | – | –
2 | ANKEKLEATINELV [peptide 7] | does not inhibit | – | –
3 | CGPC [reference compound] | – | all but the CGPC (SEQ ID NO: 22) peptide appear to exhibit biological activity | –
4 | CGPCKMIKP [9-mer peptide] | activity of the 9-mer peptide at all doses tested; also recorded: active | appear to exhibit biological activity | inhibition of allergen-induced LC migration ([1]; listed as 9-mer): active; inhibition of Langerhans Cell migration induced by TNF-α [2]: almost complete inhibition; influence on Langerhans Cell migration provoked by IL-1β [3]: without influence
5 | CGPCKMIKPFFHSLSEKYSN [peptide 3] | some indication for a dose-related inhibition; also recorded: substantial inhibition; also recorded: active | – | inhibition of allergen-induced LC migration at the highest concentration tested ([1]; highest concentration (0.5 μg) tested, three independent experiments, oxazolone): complete (or near complete) inhibition; variation in activity between peptide synthesis batches ([1]; two independent preparations of peptide 3, oxazolone-induced LC migration): only a small variation in activity
6 | IPCMPKCKG [scrambled 9-mer, reference compound] | not biologically active | – | –
7 | KMIKP | – | appear to exhibit biological activity | –
8 | KMIMP | active | – | –
9 | SATYCGPCKMIKP [peptide RV-1] | does inhibit; also recorded: active | – | –
10 | VKQIESKTAFQEALDAAGDK [peptide 1] | does not inhibit | – | –
11 | B1 | – | appear to exhibit biological activity | –
